Experimental data taken from patent US20250059174A1, “Pharmaceutical Compounds and Compositions as C-Kit Kinase Inhibitors” (Enanta Pharmaceuticals, Inc., priority 2023, published 2025).

Assays:
[1] = target: Recombinant human c-KIT kinase (Homo sapiens (Human), UniProt P10721); assay: c-KIT kinase chemiluminescence assay (ADP-Glo); type: biochemical; conditions: ATP 50 μM
Outline: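 Recombinant human c-KIT preincubated 30 min at RT in 40 mM Tris pH 7.5, 20 mM MgCl2, 0.1 mg/mL BSA, 50 μM DTT, then reacted 2 h at RT with ATP and polyEY substrate. ADP-Glo luminescence readout; activity normalized to high/low controls, IC50 and Hill coefficient from inhibitor-versus-normalized-response fit.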

M-07e cells = assay: M-07e cellular assay (SCF-mediated cell proliferation); type: cell-based; conditions: Homo sapiens, 72 hours, CellTiter Glo
Outline: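 EC50 values reflect inhibition of SCF-driven proliferation, with SCF at EC90 and a 72 h compound exposure, measured as CellTiter Glo luminescence. Growth is scaled between no-SCF (0%) and untreated (100%) wells.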

Sequence of Recombinant human c-KIT kinase (P10721 26-976): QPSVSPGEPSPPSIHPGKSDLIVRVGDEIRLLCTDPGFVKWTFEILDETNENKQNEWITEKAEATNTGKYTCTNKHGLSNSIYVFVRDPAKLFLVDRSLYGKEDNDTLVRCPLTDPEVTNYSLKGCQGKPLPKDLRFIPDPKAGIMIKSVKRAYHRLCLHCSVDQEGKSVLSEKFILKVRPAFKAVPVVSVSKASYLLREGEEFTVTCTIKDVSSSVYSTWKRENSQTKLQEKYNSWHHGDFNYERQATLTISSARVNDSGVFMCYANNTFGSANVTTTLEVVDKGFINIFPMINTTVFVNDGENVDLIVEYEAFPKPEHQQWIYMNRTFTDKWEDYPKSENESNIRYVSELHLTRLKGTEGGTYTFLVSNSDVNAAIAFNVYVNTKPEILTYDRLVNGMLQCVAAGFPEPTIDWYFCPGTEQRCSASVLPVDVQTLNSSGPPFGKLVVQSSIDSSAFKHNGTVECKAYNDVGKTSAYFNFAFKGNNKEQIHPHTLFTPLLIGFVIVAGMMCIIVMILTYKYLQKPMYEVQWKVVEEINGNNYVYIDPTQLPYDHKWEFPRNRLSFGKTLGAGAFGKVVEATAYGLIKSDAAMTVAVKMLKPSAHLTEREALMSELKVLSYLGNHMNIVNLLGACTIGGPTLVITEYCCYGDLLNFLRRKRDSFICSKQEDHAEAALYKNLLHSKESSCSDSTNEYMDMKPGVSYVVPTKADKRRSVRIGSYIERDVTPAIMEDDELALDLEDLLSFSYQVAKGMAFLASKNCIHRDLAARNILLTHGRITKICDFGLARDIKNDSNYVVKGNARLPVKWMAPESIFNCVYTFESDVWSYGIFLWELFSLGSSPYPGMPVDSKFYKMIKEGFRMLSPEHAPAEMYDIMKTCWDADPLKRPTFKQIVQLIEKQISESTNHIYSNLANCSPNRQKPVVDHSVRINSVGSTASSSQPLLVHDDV

Row | SMILES | IC50 [1] [µM] | EC50 (M-07e cells) [µM]
1 | Cc1ncc(-c2noc([C@H]3C[C@@H](OC(F)(F)F)C3)n2)cc1NC(=O)c1cnn2cc(-c3cn(CC4(C)COC4)nn3)ccc12 [Example 132-12] | < 0.1 | < 0.1
2 | Cc1ccc(-c2noc([C@H]3C[C@@H](OC(F)F)C3)n2)cc1NC(=O)c1cnn2ccc(N3CC4CC(C3)O4)cc12 [Example 257] | < 0.1 | 0.1 to 1
3 | Cc1ccc(-c2ncc(OC(F)(F)F)cn2)cc1NC(=O)c1cnn2ccc(N3CC4(C3)CC(O)(C(F)F)C4)cc12 [Example 315] | < 0.1 | < 0.1
4 | Cc1ccc(-c2noc([C@H]3C[C@@H](OC(F)F)C3(C)C)n2)cc1NC(=O)c1cnn2ccc(N3CC4(CCN(CC(F)(F)F)C4)C3)cc12 [Example 254] | 0.1 to 1 | 0.1 to 1
5 | Cc1ccc(-c2ncc(C3CC3)cn2)cc1NC(=O)c1cnn2cc(-c3cn(CC(C)(C)O)nn3)ccc12 [Example 132-14] | < 0.1 | < 0.1
6 | O=C(Nc1cc(-c2noc([C@H]3C[C@@H]3F)n2)ccc1Cl)c1cnn2ccc(N3CC4(COC4)C3)cc12 [Example 262] | < 0.1 | < 0.1
7 | Cc1ccc(-c2noc([C@H]3C[C@@H](OC(F)F)C3)n2)cc1NC(=O)c1cnn2cc(-c3cn(C(F)(F)C(=O)O)nn3)ccc12 [Example 132-3] | < 0.1 | > 1
8 | Cc1ccc(-c2noc([C@H]3C[C@@H]3F)n2)cc1NC(=O)c1cnc(-c2cccnc2)o1 [Example 285] | > 1 | > 1
9 | Cc1ncc(-c2noc([C@H]3C[C@@H]3F)n2)cc1NC(=O)c1cnn2ccc(-c3c(C)nc(N)nc3C)cc12 [Example 171-10] | > 1 | > 1
10 | Cc1ccc(-c2noc([C@H]3C[C@@H]3F)n2)cc1NC(=O)c1cnn2ccc(-c3cccnc3)cc12 [Example 150] | < 0.1 | < 0.1
11 | Cc1ccc(-c2noc([C@H]3C[C@@H]3F)n2)cc1NC(=O)c1cnn2cc(Br)ccc12 [Example 41, 6-bromo-N-(5-(5-((1R,2S)-2-fluorocyclopropyl)-1,2,4-oxadiazol-3-yl)-2-methylphenyl)pyrazolo [1,5-a]pyridine-3-carboxamide] | < 0.1 | 0.1 to 1
12 | Cc1ccc(-c2noc([C@H]3C[C@@H]3F)n2)cc1NC(=O)c1cnc(-c2ccccc2)o1 [Example 85] | 0.1 to 1 | 0.1 to 1
13 | Cc1ccc(-c2noc([C@H]3C[C@@H]3F)n2)cc1NC(=O)c1cnc(-c2ccc3[nH]c(=O)[nH]c3c2)o1 [Example 302] | < 0.1 | > 1
14 | Cc1ccc(-c2noc([C@H]3C[C@@H]3F)n2)cc1NC(=O)c1cnn2ccc(N3CC4(CNC4)C3)cc12 [Example 211] | < 0.1 | 0.1 to 1
15 | Cc1ccc(-c2noc([C@H]3C[C@@H]3F)n2)cc1NC(=O)c1cnn2ccc(-c3cnc(N4CC5(COC5)C4)cc3C)cc12 [Example 171-25] | < 0.1 | < 0.1
16 | Cc1ccc(-c2noc([C@H]3C[C@@H]3F)n2)cc1NC(=O)c1cnc2n1CCC2 [Example 37] | > 1 | > 1

Row | SMILES | IC50 [1] [µM] | EC50 (M-07e cells) [µM]
17 | Cc1ccc(-c2noc([C@H]3C[C@@H]3F)n2)cc1NC(=O)c1cnn2ccc(N3CC(CO)(C(=O)O)C3)cc12 [Example 241-16] | 0.1 to 1 | > 1
18 | COc1cccc(-c2ncc(C(=O)Nc3cc(-c4noc([C@H]5C[C@@H]5F)n4)ccc3C)o2)c1 [Example 283] | 0.1 to 1 | < 0.1
19 | Cc1ccc(-c2noc([C@H]3C[C@@H]3F)n2)cc1NC(=O)c1cnn2ccc(N3CCNC[C@@H]3C)cc12 [Example 196] | < 0.1 | < 0.1
20 | CC(=O)NC1CN(c2ncc(C(=O)Nc3cc(-c4noc([C@H]5C[C@@H]5F)n4)ccc3C)s2)C1 [Example 98-2] | > 1 | > 1
21 | COc1ccc2c(C(=O)Nc3cc(-c4noc([C@H]5C[C@@H]5F)n4)ccc3C)cnn2c1 [Example 58] | < 0.1 | < 0.1
22 | Cc1ccc(-c2noc([C@H]3C[C@@H](OC(F)(F)F)C3)n2)cc1NC(=O)c1cnn2ccc(N3CC4(COC4)C3)cc12 [Example 243] | < 0.1 | < 0.1
23 | Cc1ncc(-c2ccc(OC(F)F)cn2)cc1NC(=O)c1cnn2ccc(N3CC4(C3)CC(O)(C(F)F)C4)cc12 [Example 331] | 0.1 to 1 | < 0.1
24 | Cc1nc(C)c(-c2ccn3ncc(C(=O)Nc4cc(-c5noc([C@H]6C[C@@H](OC(F)(F)F)C6)n5)ccc4C)c3c2)c(C)n1 [Example 171-5] | 0.1 to 1 | 0.1 to 1
25 | Cc1ccc(-c2noc([C@H]3C[C@@H]3F)n2)cc1NC(=O)c1cnn2ccc(-c3cnc(NC4CC4)nc3)cc12 [Example 159] | < 0.1 | < 0.1
26 | Cc1ccc(-c2noc([C@H]3C[C@@H]3F)n2)cc1NC(=O)c1cnn2ccc(N3CC4(C3)CN(S(C)(=O)=O)C4)cc12 [Example 241-1] | < 0.1 | < 0.1
27 | Cc1ccc(-c2noc([C@H]3C[C@@H]3F)n2)cc1NC(=O)c1cnn2ccncc12 [Example 15] | 0.1 to 1 | 0.1 to 1
28 | Cc1ccc(-c2noc([C@H]3C[C@@H](OC(F)(F)F)C3)n2)cc1NC(=O)c1cnn2ccc(-c3c(C)nc(N)nc3C)cc12 [Example 171-7] | 0.1 to 1 | 0.1 to 1
29 | Cc1ccc(-c2noc([C@H]3C[C@@H]3F)n2)cc1NC(=O)c1cnc(-c2ccc3[nH]c(C(F)(F)F)cc3c2)o1 [Example 304] | < 0.1 | < 0.1
30 | Cc1ccc(-c2noc([C@H]3C[C@@H]3F)n2)cc1NC(=O)c1cnn2cc(-c3nn[nH]n3)ccc12 [Example 130] | 0.1 to 1 | > 1
31 | Cc1ccc(-c2ncc(OC(F)F)cn2)cc1NC(=O)c1cnn2ccc(N3CC4(C3)CC(O)(C(F)F)C4)cc12 [Example 314] | < 0.1 | < 0.1
32 | Cc1ccc(-c2noc([C@H]3C[C@@H]3F)n2)cc1NC(=O)c1cnn2cc(-c3ccc(F)cc3)ccc12 [Example 149] | < 0.1 | < 0.1

Second part, led by results:

Row | IC50 [1] [µM] | SMILES | EC50 (M-07e cells) [µM]
33 | < 0.1 | Cc1sc(-c2noc([C@H]3C[C@@H](OC(F)(F)F)C3)n2)cc1NC(=O)c1cnn2ccc(N3CC4(C3)CC(O)(C(F)F)C4)cc12 [Example 281-112] | 0.1 to 1
34 | < 0.1 | COC(=O)N1CC(c2nc(-c3cnc(C)c(NC(=O)c4cnn5ccc(N6CC7(C6)CC(O)(C(F)F)C7)cc45)c3)no2)C1 [Example 281-78] | < 0.1
35 | > 1 | Cc1ncc(-c2nnn(C3CNC3)n2)cc1NC(=O)c1cnn2ccc(N3CC4(C3)CC(O)(C(F)F)C4)cc12 [Example 312-8] | > 1
36 | 0.1 to 1 | Cc1ccc(-c2noc([C@H]3C[C@@H]3F)n2)cc1NC(=O)c1cnc(-c2ccc(NC(N)=O)cc2)o1 [Example 308-47] | 0.1 to 1
37 | 0.1 to 1 | Cc1ccc(-c2noc(C3CN(C(=O)OC(C)C)C3)n2)cc1NC(=O)c1cnc(-c2ccc3c(c2)CC(=O)N3)o1 [Example 308-62] | > 1
38 | > 1 | Cc1ncc(-c2noc(C3CN(C(=O)[C@H]4CC4(F)F)C3)n2)cc1NC(=O)c1cnn2ccc(N3CC4(C3)CC(O)(C(F)F)C4)cc12 [Example 281-91] | > 1
39 | 0.1 to 1 | Cc1ncc(-c2noc(C3CC(F)(F)C3)n2)cc1NC(=O)c1cnn2ccc(N3CC4(COC4)C3)cc12 [Example 281-67] | < 0.1
40 | 0.1 to 1 | Cc1ncc(-c2noc([C@H]3CN(CC(F)(F)F)[C@@H]3C)n2)cc1NC(=O)c1cnn2ccc(N3CC4(C3)CC(O)(C(F)F)C4)cc12 [Example 281-9] | 0.1 to 1
41 | < 0.1 | Cc1cc2cc(-c3ncc(C(=O)Nc4cc(-c5noc([C@H]6C[C@@H]6F)n5)ccc4C)o3)ccc2[nH]1 [Example 308-27] | < 0.1
42 | 0.1 to 1 | Cc1ccc(-c2noc(N3CCOCC3)n2)cc1NC(=O)c1cnn2ccc(N3CC4(C3)CC(O)(C(F)F)C4)cc12 [Example 281-100] | < 0.1
43 | 0.1 to 1 | COC(=O)N1CC2(CC(c3nc(-c4ccc(C)c(NC(=O)c5cnn6ccc(N7CC8(COC8)C7)cc56)c4)no3)C2)C1 [Example 281-133] | 0.1 to 1
44 | 0.1 to 1 | Cc1ccc(-c2noc(C3CCN(C(=O)[C@H]4C[C@@H]4F)C3)n2)cc1NC(=O)c1cnn2ccc(N3CC4(COC4)C3)cc12 (stereo partly drawn) [Example 281-92] | 0.1 to 1
45 | > 1 | Cc1ncc(-c2noc(C3(F)CN(C(=O)OC(C)(C)C)C3)n2)cc1NC(=O)c1cnn2ccc(N3CC4(C3)CC(O)(C(F)F)C4)cc12 [Example 281-101] | 0.1 to 1
46 | > 1 | Cc1ccc(-c2noc(C3CN(C(=O)NC4CC4)C3)n2)cc1NC(=O)c1cnn2ccc(N3CC4(COC4)C3)cc12 [Example 281-56] | > 1
47 | < 0.1 | O=C(Nc1cc(-c2noc(N3CC(O)(C(F)(F)F)C3)n2)ccc1Cl)c1cnn2ccc(N3CC4(COC4)C3)cc12 [Example 281-123] | < 0.1
48 | < 0.1 | Cc1ccc(-c2noc([C@H]3C[C@@H](OC(F)(F)F)C3)n2)cc1NC(=O)c1cnn2ccc(N3CC4(C3)CC(O)(C(F)F)C4)cc12 [Example 281-21] | < 0.1
49 | 0.1 to 1 | Cc1ccc(-c2noc([C@H]3C[C@@H]3F)n2)cc1NC(=O)c1cnc(-c2cccc3nc[nH]c23)o1 [Example 308-38] | 0.1 to 1
50 | < 0.1 | [2H]C([2H])([2H])c1ccc(-c2noc([C@H]3C[C@@H]3C(F)F)n2)cc1NC(=O)c1cnn2ccc(N3CC4(COC4)C3)cc12 [Example 281-5] | < 0.1
51 | 0.1 to 1 | Cc1ccc(-c2noc([C@H]3C[C@@H]3F)n2)cc1NC(=O)c1cnc(-c2ccc3nnn(C)c3c2)o1 [Example 308-46] | 0.1 to 1
